“And” between values parts separate entries of the source, which are not always exact repeats. Identical values can stand only once.
Experiments:
Lewis lung carcinoma = assay: Antitumor activity against Lewis lung carcinoma, Example 14 (Table IV); format: in vivo, B6D 2F 1 male mice; set-up: Treated Group Survival Time: unit not given here; details: for Treated Group Survival Time: mean, control 19.0
Protocol: As illustrative examples of the antitumor use of COMPOUNDS 1 and 2, Examples 12 through 14, below, are given. […] The tests utilized in these illustrative examples were conducted by the Developmental Therapeutics Program, Division of Cancer Treatment, National Cancer Institute. The tests were supervised by this agency utilizing their standard protocols and procedures. All tests conformed to these protocols and all tests were evaluated under the criteria defined by these protocols. The following representative examples illustrate confirmed activity of the illustrative compounds of the invention against screening tumor systems of the National Cancer Institute.
For purposes of the following examples, the abbreviation IP stands for intraperitoneal and IV stands for intravenous. The mean and median survival times are calculated in instruction 14 (revised 6/78) of the Screening Data Summary, Developmental Therapeutics Program, Division of Cancer Treatment, National Cancer Institute. The contents of this Screening Data Summary including appropriate revisions are herein incorporated by reference.
In the illustrated examples below, the vehicle used as carrier for the drug was injected (minus any drug therein) into the control animals at the same level of use of the vehicle in the drug treated animals in order to eliminate any vehicle effect of the tests.
In both the control group and the drug treated group in Example 12, the animals were inoculated on day zero with a homogenate of 10^6 seed cells of Lewis lung carcinoma. For Example 12, drug treatment was started on day one and COMPOUND 1 given once daily for nine days. Day five was utilized as the cut-off date for deaths attributable to toxicity of the drug. […] Efficacy of treatment was determined by comparing median survival time of the control animals and is expressed as percentage increase of treated animals/control animals (T/C).
COMPOUND 2, 2-(5-phosphono-β-D-ribofuranosyl)selenazole-4-carboxamide was screened for Lewis lung carcinoma activity in a manner similar to that described in Example 12. In this example, B6D 2F 1 male mice were challenged with Lewis lung carcinoma. The mean survival time of the test animals was compared to that of appropriate control animals. […] At 13 mg/kg the treated, surviving mice have a T/C of 315 percent and 4 out of 10 cures were achieved.

L-1210 = assay: Growth inhibition in suspension cell culture, L-1210; format: cell-based; details: Mus musculus, L1210, 72 hours, cell count 50 percent of untreated control, read-out: ID50 (the source's name)
Protocol: (§1) In further tests, growth-inhibitory effects of COMPOUND 1 and COMPOUND 2 were measured against 3 mouse tumor lines in suspension cell culture. Cell cultures were initiated at a density of 50,000 cells/ml in medium RPMI 1630 supplemented with 10 percent fetal calf serum. Composition of this culture medium and details of the culture procedure followed the published method (G. E. Moore, A. A. Sandberg and K. Ulrich, Suspension Cell Culture and in vivo and in-vitro chromosome constitution of mouse leukemia L1210, Journal of the National Cancer Institute 36, 405-415, 1966). Cultures were maintained at 37 degrees in stationary suspension culture under a 95 percent air+5 percent CO2 atmosphere. Test compounds were added to treated cultures at the time of initiation, and were present continually. After 72 hours, 40-fold dilutions of drug-treated and untreated control cultures were prepared in 0.9 percent NACl solution, and cells were counted on an electronic particle counter. The growth-inhibitory effects are expressed as ID50 values, namely, test compound inhibitory dosages or concentrations required to decrease cell count in treated cultures to 50 percent of the cell count of untreated control cultures.

P388 = assay: Growth inhibition in suspension cell culture, P388; format: cell-based; details: Mus musculus, 72 hours, cell count 50 percent of untreated control, read-out: ID50 (the source's name)
Protocol: as §1

B16 Melanoma = assay: Growth inhibition in suspension cell culture, B16 Melanoma; format: cell-based; details: Mus musculus, 72 hours, cell count 50 percent of untreated control, read-out: ID50 (the source's name)
Protocol: as §1

3 mouse tumor lines = assay: Growth inhibition in suspension cell culture, representative tumor lines; format: cell-based
Protocol: as §1

NC(=O)c1c[se]c([C@@H]2O[C@H](COP(=O)(O)O)[C@@H](O)[C@H]2O)n1 [COMPOUND 2, 2-β-D-Ribofuranosylselenazole-4-Carboxamide 5'-phosphate]
Cures (Lewis lung carcinoma; 3 mg/kg): 0/10
Percent Treated Animals/Control Animals (T/C) (Lewis lung carcinoma; 3 mg/kg): 109%
Treated Group Survival Time (Lewis lung carcinoma; 3 mg/kg): 20.8
Cures (Lewis lung carcinoma; 6 mg/kg): 0/10
Percent Treated Animals/Control Animals (T/C) (Lewis lung carcinoma; 6 mg/kg): 115%
Treated Group Survival Time (Lewis lung carcinoma; 6 mg/kg): 22.0
Cures (Lewis lung carcinoma; 9 mg/kg): 1/10
Treated Group Survival Time (Lewis lung carcinoma; 9 mg/kg): 12.5
Cures (Lewis lung carcinoma; 13 mg/kg): 4 out of 10 and 4/10
Percent Treated Animals/Control Animals (T/C) (Lewis lung carcinoma; 13 mg/kg): 315%
Treated Group Survival Time (Lewis lung carcinoma; 13 mg/kg): 60.0
Cures (Lewis lung carcinoma; 20 mg/kg): 2/10
Treated Group Survival Time (Lewis lung carcinoma; 20 mg/kg): 12.0
Cures (Lewis lung carcinoma; 33 mg/kg): 3/10
Treated Group Survival Time (Lewis lung carcinoma; 33 mg/kg): 12.5
Cures (Lewis lung carcinoma; 50 mg/kg): 3/10
Treated Group Survival Time (Lewis lung carcinoma; 50 mg/kg): 12.5
Cures (Lewis lung carcinoma; 75 mg/kg): 1/10
Treated Group Survival Time (Lewis lung carcinoma; 75 mg/kg): 15.5
antitumor activity in words (Lewis lung carcinoma; mean survival time versus control): effective antitumor agent
IC50 (L-1210): 58 nM
IC50 (P388): 66 nM
IC50 (B16 Melanoma): 7500 nM
growth inhibition compared with COMPOUND 1, in words (3 mouse tumor lines; cell culture): appears to be superior to COMPOUND 1
growth inhibition in words (3 mouse tumor lines; representative tumor lines in cell culture): inhibit growth in cell culture for representative tumor lines at extremely low dosage

— patent US4531001A, “2-β-D-ribofuranosylselenazole-4-carboxamide compounds” (priority 1983, dated 1985)
